# Experimental data as given in US9751825B2, “TAK1 kinase inhibitors, compositions, and used related thereto” (Emory University, priority 2011, dated 2017).
# Entries after “also recorded” stand apart in the source; their conditions may differ. Where two headings read alike, the source gives them in different places.
# Assays:
# [1] = Stability of the isolated product at room temperature; format: physicochemical
# [2] = tested on: breast carcinoma MDA-MB-231 cells; experiment: Cytotoxicity assay (methylene blue staining), MDA-MB-231 cells; format: cell-based
# Method: (§1) The assay consists of treatment of cells with the synthetic compounds (a range of concentrations) and subsequent quantification of the cells by staining with methylene blue and measuring optical density of the resulting colored solution. The measured optical densities are normalized to a vehicle-control and the normalized values are used to determine IC50 values for a given compound using SigmaPlot software, Systat Software, Inc., San Jose, Calif. Cells were seeded in 96-well plate at 2-5,000 cells/well in 100 μl. Next day cells were treated with HDAB compounds. Stocks of compounds (10 mM) were prepared by dissolving in DMSO. Consecutive dilutions ranging 10 nM-100 μM concentrations were prepared as 2× solutions in media, and 100 μl solutions were added to cells for treatment. DMSO was used as a vehicle control. Cells were incubated with compounds for 48 hours at 37° C. in a CO2-incubator. For cell staining, media was removed and cells were fixed and stained with 0.5% Methylene blue in water/methanol (50:50) solution for 1 hour at room temperature (RT). After extensive rinsing in ddH2O the plates were dried over-night. Cells were solubilized in 100 μl/well of 1% SDS in PBS for 10 minutes at RT, the absorbance at 650 nm (methylene-blue absorbance) and 540 nm (background) was read with a SpectraMax fluorimeter and the difference Abs650-Abs540 was calculated.
# [3] = tested on: Non-tumor MCF10A (ER-, PR-) cells; experiment: Cytotoxicity in non-tumor MCF10A cells; format: cell-based, human
# Method: as §1, with “calculated. […]” for “calculated.”
# [4] = tested on: breast, prostate and lung carcinoma and non-tumor cell lines; format: cell-based
# Method: as §1
# Assays were carried out with a panel of breast, prostate and lung carcinoma and non-tumor cell lines with HDAB-001. […] The selectivity trend for HDAB001 was further validated in a set of prostate carcinoma and non-tumor epithelial cell lines.
# [5] = tested on: prostate cancer cells (PC3) and breast cancer MDA-MB-231 cells; experiment: Tumor cell growth with kinase inhibitors, with or without TNFα (FIG. 2); format: cell-based; details: 48 hrs; for tumor cell growth: 5 μM U0126, 10 μM 1478, 5 μM 5Z-7-oxozeanol, 5 μM HDAB001, 5 μM SB431542; for repression of tumor cell growth together with TNFα: TNFα (10 ng/ml)
# From the text: The response of prostate cancer cells (PC3, FIG. 2) and breast cancer MDA-MB-231 cells to HDAB001 was compared with responses to known kinase inhibitors, including 5Z-7-oxozeanol, a selective inhibitor of TAK1; U0126, a selective MEK inhibitor; AG1478, a selective EGFR inhibitor; SB431542, TGFBR1 inhibitor.
# phosphorylation of ERK = experiment: Phosphorylation of ERK in non-tumor MCF10A cells with EGF-mediated signaling; format: cell-based, human; details: 10 μM HDAB001, 10 μM AG1478
# Method: (§2) MEK inhibitor U0126 inhibits phosphorylation of ERK and EGFR inhibitor blocks EGFR-mediated phospho-ERK in MCF10A.
# (§3) The selectivity of the HDAB001 and HDAB006 compounds was tested in several cell-based assays examining the kinase activity of RAF, MEK, EGFR and TGFBR1. Several known inhibitors of the above kinases were used for control. Two luciferase reporters NF-KB-Luc and SBE-Luc were transfected in MDA-MB-231 cells to assess the effect of compounds on NF-KB and TGF-beta receptor-Smad signaling events. […] See Safina et al., TAK1 is required for TGF-[beta]1-mediated regulation of matrix metalloproteinase-9 and metastasis. Oncogene, 2008, 27, 1198-1207. […] The kinase activities of TGF-beta receptors type I and type II are required for phosphorylation of Smad2.
# PC3 = experiment: Cytotoxicity of HDAB001 in prostate carcinoma cell lines, PC3; format: cell-based; details: PC3, AR neg, metastatic
# Method: as §1, with “calculated. […]” for “calculated.”
# LNCaP = experiment: Cytotoxicity of HDAB001 in prostate carcinoma cell lines, LNCaP; format: cell-based; details: AR pos, tumor
# Method: as §1, with “calculated. […]” for “calculated.”
# LNCaP-C4-2 = experiment: Cytotoxicity of HDAB001 in prostate carcinoma cell lines, LNCaP-C4-2; format: cell-based; details: LNCaP-C4-2, AR pos, ind, metastatic
# Method: as §1, with “calculated. […]” for “calculated.”
# RWPE-1 = experiment: Cytotoxicity of HDAB001 in prostate cell lines, RWPE-1 (non-tumor); format: cell-based; details: RWPE-1, AR pos
# Method: as §1, with “calculated. […]” for “calculated.”
# RWPE-2 = experiment: Cytotoxicity of HDAB001 in prostate carcinoma cell lines, RWPE-2; format: cell-based; details: RWPE-2, AR pos, tumor, metastatic
# Method: as §1, with “calculated. […]” for “calculated.”
# ER-positive cell lines = experiment: Cytotoxicity in ER-positive breast carcinoma cell lines; format: cell-based; details: three ER-positive cell lines
# Method: as §1, with “calculated. […]” for “calculated.”
# ER/HER2-positive lines = experiment: Cytotoxicity in ER/HER2-positive breast carcinoma lines; format: cell-based; details: two ER/HER2-positive lines
# Method: as §1, with “calculated. […]” for “calculated.”
# [6] = tested on: mouse carcinoma cell line 4T1; experiment: Cytotoxicity in mouse carcinoma cell line 4T1; format: cell-based; details: 4T1 (from BALB/c mice)
# Method: as §1, with “calculated. […]” for “calculated.”
# [7] = tested on: Non-tumor MCF12A (ER+) cells; experiment: Cytotoxicity in non-tumor MCF12A cells; format: cell-based, human
# Method: as §1, with “calculated. […]” for “calculated.”
# SBE-Luc = SBE-Luc luciferase reporter (TGF-beta receptor-Smad signaling) in MDA-MB-231 cells; format: cell-based
# Method: FIG. 3A-B show data on the luciferase activity of NFkB-Luc and SBE-Luc reporters in MDA-MB-231 control, dnTAK1 or cells treated with HDAB001 and HDAB006, P-values by the ANOVA test.
# as §3
# phosphorylation of Smad2 = experiment: Phosphorylation of Smad2 in TGFβ1-treated cells; format: cell-based; details: 2 ng/ml TGFβ1 for 2 hours; HDAB001 10 μM
# Method: as §2, §3
# [8] = tested on: phosphorylation of ERK1/2; experiment: Phosphorylation of ERK1/2 in MDA-MB-231 cells; format: cell-based; details: 2 ng/ml TGFβ1 for 2 hours, 10 μM HDAB001, 5 μM U0126
# Method: as §2, §3
# [9] = triple-negative MDA-MB-231 cells
smiles,measurement,setting,value
"COC(=O)/C=C\C=C(\C(=O)N(C)OC)c1ccc(Cl)c(Cl)c1 [Compound 1-63h, (2Z,4E)-methyl 5-(3,4-dichlorophenyl)-6-(methoxy(methyl)amino)-6-oxohexa-2,4-dienoate]",stability after isolation,[1],decomposed at room temperature
"O=c1[nH]cc(F)c(=O)[nH]1 [Compound 5FU, 5-FluororoUricil, reference compound]",IC50,[2]; [9],5700 nM
same,IC50,[3],1800 nM
same,more toxic to non-tumor MCF10A than to breast cancer MDA-MB-231 cells,[4],3-10 fold
"COC(=O)/C=C\C=C(\C(=O)OC)c1ccc(Br)c(Br)c1 [HDAB022, (2E,4Z)-dimethyl 2-(3,4-dibromophenyl)hexa-2,4-dienedioate]",IC50,"[2]; Homo sapiens, MDA-MB-231 cells, 48 hours incubation, methylene blue staining",2160 nM
"COc1cccc2c1C(=O)c1c(O)c3c(c(O)c1C2=O)C[C@@](O)(C(=O)CO)C[C@@H]3O[C@H]1C[C@H](N)[C@H](O)[C@H](C)O1 [Doxorubicin, reference compound]",more toxic to non-tumor MCF10A than to breast cancer MDA-MB-231 cells,"[4]; human, 48 h",3-10 fold
COc1cc2ncnc(Nc3cccc(Cl)c3)c2cc1OC [AG1478],tumor cell growth,[5],resistant
same,phosphorylation of ERK in the presence of EGF-mediated signaling,phosphorylation of ERK,blocked
COC(=O)/C=C\C=C(\C(=O)OC)c1ccc(Cl)c(Cl)c1 [HDAB001],IC50,"[2]; MDA-MB-231 cells, 48 hours incubation, methylene blue staining",4620 nM
same,IC50,[2]; [9],3700 nM
same,IC50,PC3,2300 nM
same,IC50,LNCaP,2100 nM
same,IC50,LNCaP-C4-2,500 nM
same,IC50,RWPE-1,40100 nM
same,IC50,RWPE-2,2400 nM
same,IC50,ER-positive cell lines,300 to 750 nM
same,IC50,ER/HER2-positive lines,1000 to 1500 nM
same,IC50,[6],530 nM
same,IC50,[3],48000 nM
same,IC50,[7],> 100000 nM
same,IC50 in non-tumor MCF10A and MCF12A cells relative to tumor cells,[4]; non-tumor vs tumor cells,~20 fold
same,selectivity for tumor cells compared to non-tumor cells,[4]; tumor vs non-tumor cells,at least twenty-fold
same,tumor cell growth,[5],markedly inhibited
same,repression of tumor cell growth together with TNFα,[5],cooperated with TNFα
same,TGF-beta reporter activity,SBE-Luc,did not affect
same,phosphorylation of Smad2,phosphorylation of Smad2,did not affect
same,phosphorylation of ERK1/2,[8],did not affect
same,phosphorylation of ERK in the presence of EGF-mediated signaling,phosphorylation of ERK,did not affect
N#CC(=C(/N)Sc1ccccc1N)/C(C#N)=C(\N)Sc1ccccc1N [Compound U0126],tumor cell growth,[5],less sensitive
same,phosphorylation of ERK1/2,[8],inhibits; also recorded: effectively blocked
"NC(=O)c1ccc(-c2nc(-c3ccc4c(c3)OCO4)c(-c3ccccn3)[nH]2)cc1 [SB431542, reference compound]",tumor cell growth,[5],resistant
same,phosphorylation of Smad2,phosphorylation of Smad2,blocked
COc1cc(O)c2c(c1)/C=C/C[C@H](O)[C@H](O)C(=O)/C=C\C[C@H](C)OC2=O [5Z-7-oxozeanol],tumor cell growth,[5],markedly inhibited
same,repression of tumor cell growth together with TNFα,[5],cooperated with TNFα
